Data set [1] in a line: Stain removal (ΔE whitening index) on pre-stained bovine enamel slabs. As for the experimental part:
Commercially available bovine enamel slabs were purchased from Theremetrics Inc. The slabs were prepared by immersing the enamel specimens in a staining broth containing coffee, tea and gastric mucin and air-drying the specimens. The gastric mucin (glycoprotein) was added to the straining broth to afford pellicle formation on the enamel surface. This mimics the dental pellicle formed by the glycoproteins present in the saliva. The broth immersion and air-drying procedure was repeated several times up to four days to afford a heavily-stained film containing the pellicle, as shown in FIG. 2.
Six treatments were performed with 3 bovine enamel slabs per treatment (2 medium stained and 1 heavy stained). The following treatment regimen was followed. The pre-stained enamel slabs were suspended in aqueous medium using a thin rod in a plastic container. […]
After the treatment, the solution was emptied and the slab was rinsed with DI water and wiped with paper towel. […] The whiteness index was measured using Xrite spectrophotometer (L*a b) at the end of 28 and 56 cycles or treatments. […]
The term ΔE, known as the whitening index value, represents the change in color difference from baseline measurements. The L* a* b* values were measured by Xrite spectrophotometer which was calibrated every time prior use. […] Using the L* a* b* values, ΔE was calculated according to the formula as shown below. […]
The three phosphate buffer solutions (pH 5.8, 7.0, 8.0) were prepared using 0.2M NaH2PO4 and 0.2M Na2HPO4. […] The L* a* b* measurements were measured by Xrite spectrophotometer and digital images were taken at baseline, 28 cycles and at end of 56 cycles.
Artificial saliva was used as the medium for this example. […] The L* a* b* measurements were measured by Xrite spectrophotometer and digital images were taken at baseline, after 28 cycles and after 56 cycles.
Artificial saliva was used as the medium for Example 4. […] The L* a* b* measurements were measured by Xrite spectrophotometer and digital images were taken at baseline, after 28 treatment cycles and after 56 treatment cycles.

The conditions of data set [2]: hydrolyze to form orthophosphates; cited from earlier work.

For the molecule `O=P1([O-])OP(=O)([O-])OP(=O)([O-])OP(=O)([O-])OP(=O)([O-])OP(=O)([O-])O1.[Na+].[Na+].[Na+].[Na+].[Na+].[Na+]` [Code B, sodium hexametaphosphate], in data set [1] (Example 1, specifically heavy stains), the “stain removal, ingredient only vs tableted forms (Codes H, L & D)” value is recorded as “performed better than tableted forms”.
As for `O=P1([O-])OP(=O)([O-])OP(=O)([O-])OP(=O)([O-])OP(=O)([O-])OP(=O)([O-])O1.[Na+].[Na+].[Na+].[Na+].[Na+].[Na+]` [SHMP, sodium hexametaphosphate], the “stability in acidic environments” value in data set [2] is reported as “not stable”. In data set [1] (Example 3, 0-8% SHMP tablets, medium stained slabs, artificial saliva), the “relationship between SHMP concentration and stain removal efficacy ΔE values” was “linear relationship”. In addition, the “reduction of whitening efficacy” value in data set [1] (Example 3, dropping SHMP level in tablet from 8% to 5%, artificial saliva) is on record as 32%.

The values are drawn from patent US12661309B2, “Preparation and efficacy of tooth whitening tablet including SHMP” (The Hershey Company, priority 2018, dated 2026).
